Test results from BindingDB's records for doi:10.1111/j.1747-0285.2011.01199.x (Sanford-Burnham Medical Research Institute, 2011).

Biological target: T1, Ephrin type-A receptor 4 [1-949,A922V] (Homo sapiens, UniProt P54764, A922V)
T1 construct: 1-949
Assay: Enzyme-linked Immunosorbent Assay
Settings: pH 7.5
Description: Protein A-coasted wells (from Pierce Biotechnology) were used to immobilize Eph receptor Fc fusion proteins (from R&D systems)incubated at 1 ug/ml in TBST.

For `O=C(O)/C=C/c1ccc(-c2ccc(O)c(C(=O)O)c2)o1` [Salicylic acid derivative, 76A5], which IC50 is on record?
The IC50 was greater than 500 µM.

`O=C(O)c1ccc(-c2ccc(O)c(C(=O)O)c2)o1` [Salicylic acid derivative, 76B8] was tested. Which IC50 did it give?
The IC50 was greater than 500 µM.

Which IC50 does the source give for `Cc1ccc(C)n1-c1ccc(C(=O)O)c(O)c1` [4-(2,5-dimethyl-1H-pyrrol-1-yl)-2-hydroxybenzoic acid] here?
The IC50 was 1.3 µM.

For `O=C(/C=C/c1ccc(-c2ccc(O)c(C(=O)O)c2)o1)/C=C/c1ccc(-c2ccc(O)c(C(=O)O)c2)o1` [Salicylic acid derivative, 76D10], which IC50 is on record?
Its IC50 is 2.6 µM.

For `Cc1ccc(C)n1-c1ccc(O)c(C(=O)O)c1` [Salicylic acid derivative, compound 2], which IC50 is on record?
The IC50 was 10 µM.
